Reference: US20100317583A1, “TREATMENT OF MELANOMA WITH ALPHA THYMOSIN PEPTIDES IN COMBINATION WITH AN ANTINEOPLASTIC HEAT SHOCK APOPTOSIS ACTIVATOR (HSAA)” (SciClone Pharmaceuticals, Inc., priority 2007, published 2010)
Several values for one entry are separate records, joined by “and”; a condition that tells them apart may be missing. Identical values can stand only once. No end group written: not given here.

Tested on: murine B16 melanoma cells
Experiment: Anti-tumor efficacy (tumor size, tumor volume, tumor weight) in C57BL/6 mice bearing subcutaneous B16 melanoma
Type: in vivo
Conditions: for Tumor weights / PI (TW), percent inhibition of tumor weight vs vehicle: Day 17
Description: In this study, the anti-tumor effect of the combined treatment of thymosin alpha-1 (TA-1), Paclitaxel (Pac) and Elesclomol (Ele) was evaluated in C57BL/6 mice bearing B16 melanoma cells. The toxic effects of the dosing regimens were also monitored. A total of 60 mice were implanted subcutaneously with murine B16 cells, followed by treatment with TA-1 or Pac/Ele alone or in combination for 14 consecutive days. TA-1 was given daily via s.c., while Pac and Ele were co-i.v. administered on Day 1, 7 and 13. In total, 6 groups were used: Group 1: vehicle; Group 2: TA-1 6 mg/kg; Group 3: Pac 10 mg/kg+Ele 10 mg/kg; Group 4: Pac 30 mg/kg+Ele 30 mg/kg; Group 5: TA-1 6 mg/kg+Pac 10 mg/kg+Ele 10 mg/kg; and Group 6: TA-1 6 mg/kg+Pac 30 mg/kg+Ele 30 mg/kg. Tumor volume and body weight were measured every three days, and tumor weights were measured on Day 17 at the end of the study.
Murine B16 melanoma cells were thawed from the stock of Cell Culture Center, Institute of Basic Medical Sciences, Peking Union Medical College and Chinese Academy of Medical Sciences (PUMC & CAMS, Beijing, P. R. China). The tumor cells were adapted in C57BL/6 mice before use in the experiment (Refer to Section 4.3.1 for details on cell adaptation).
Using aseptic tissue culture procedures, one vial of B16 melanoma cells was removed from the liquid nitrogen stock, and placed into a 37° C. water bath. Gentle swirling was conducted until the content of the vial was thawed. Once thawed, the cells were immediately centrifuged with a TD5A-WS centrifuge at 1000 rpm, 20-25° C., 5 min. After centrifugation, the cells were suspended in […] normal saline (NS) and subcutaneously injected into 10 mice (0.1 mL/mouse, about 1×10^6 cells). After 7-10 days, when the tumor diameter was approximately 1 cm, the animals were euthanized with CO2 overdose and the tumors excised. The procedure was repeated with 20 mice to generate a sufficient number of B16 melanoma cells with adequate transplantability.
On the day of tumor implantation, approximately 1×10^6 cells in 0.1 mL were subcutaneously injected on the right axillary area of each mouse. The day of tumor implantation was defined as Day 0.
On Day 1, the animals were randomly assigned into different weight-matched groups, and dosing was started using the regimen according to Table 2. Briefly, TA-1 was administered once daily via subcutaneous (s.c.) injection for 14 consecutive days at a site different from that of tumor cell implantation, while Pac and Ele was administered on Days 1, 7, and 13 via an intravenous (i.v.) injection.
From Day 1 to Day 15, mortality and moribundity were checked twice daily, the body weights were recorded once every 3 days, and tumors were measured using a caliper once every 3 days. At the end of the study (Day 17), the animals were euthanized by CO2 asphyxiation, and the tumors were excised and weighed.
Based on the tumor size, the tumor volume (TV) was calculated with the formula: [TV=(Length×Width×Width)/2]. And the percent inhibition (PI) of TV (PITV) was calculated according to the equation below:
PITV(%)=(TV vehicle−TVdrug treated)/TV vehicle×100
The anti-tumor effect of the test article was further evaluated with tumor weight (TW) measured on day of necropsy (Day 17). The PI of TW was calculated using the equation below:
PITW(%)=100×(TW vehicle−TW drug treated)/TW vehicle
The calculations of PITV and PITW were performed using an Excel spreadsheet and reviewed by the Study Director and Study Monitor.
Inter-group comparison was performed in terms of tumor volume, tumor weight and body weight, using a student's t test. P values of less than 0.05 were considered to be statistically significant.

[1] = Day 3, individual animals F1-F5, M1-M5, low-dose arms: TA-1 6 mg/kg, Pac 10 + Ele 10 mg/kg
[2] = Day 3, low-dose arms: TA-1 6 mg/kg s.c. daily, Pac 10 + Ele 10 mg/kg co-i.v. Days 1, 7, 13
[3] = Day 6, individual animals F1-F5, M1-M5, low-dose arms: TA-1 6 mg/kg, Pac 10 + Ele 10 mg/kg
[4] = Day 6, low-dose arms: TA-1 6 mg/kg s.c. daily, Pac 10 + Ele 10 mg/kg co-i.v. Days 1, 7, 13
[5] = Day 9, individual animals F1-F5, M1-M5, low-dose arms: TA-1 6 mg/kg, Pac 10 + Ele 10 mg/kg
[6] = Day 9, low-dose arms: TA-1 6 mg/kg s.c. daily, Pac 10 + Ele 10 mg/kg co-i.v. Days 1, 7, 13
[7] = Day 12, low-dose arms: TA-1 6 mg/kg s.c. daily, Pac 10 + Ele 10 mg/kg co-i.v. Days 1, 7, 13
[8] = Day 15, low-dose arms: TA-1 6 mg/kg s.c. daily, Pac 10 + Ele 10 mg/kg co-i.v. Days 1, 7, 13

thymosin alpha 1 (SDAAVDTSSEITTKDLKEKKEVVEEAEN; ends and bridges not checked; UniProt P06454 2-29, looked up) [TA-1, 28 amino acid peptide with a molecular weight of 3108; immunomodulator]
Tumor measurements, L (length) [1]: 0.1 cm (2×) and 0.2 cm (2×)
Tumor measurements, W (width) [1]: 0.1 cm (2×) and 0.2 cm (2×)
Tumor volumes (Day 3, individual animals F1-F5, M1-M5, low-dose arms: TA-1 6 mg/kg, Pac 10 + Ele 10 mg/kg, female mice): 0 cm^3 (4×) and 0.0005 cm^3
Tumor volumes (Day 3, individual animals F1-F5, M1-M5, low-dose arms: TA-1 6 mg/kg, Pac 10 + Ele 10 mg/kg, male mice): 0 cm^3 (2×) and 0.004 cm^3 (2×) and 0.0005 cm^3
PI (TV), percent inhibition of tumor volume vs vehicle [2]: −50.00%
Tumor Volume (Mean ± SD) [2]: 0.0009 ± 0.0016 cm^3
Tumor measurements, L (length) [3]: 0.3 cm and 0.2 cm (2×) and 0.1 cm
Tumor measurements, W (width) [3]: 0.3 cm and 0.2 cm (2×) and 0.1 cm
Tumor volumes (Day 6, individual animals F1-F5, M1-M5, low-dose arms: TA-1 6 mg/kg, Pac 10 + Ele 10 mg/kg, female mice): 0 cm^3 (4×) and 0.0135 cm^3
Tumor volumes (Day 6, individual animals F1-F5, M1-M5, low-dose arms: TA-1 6 mg/kg, Pac 10 + Ele 10 mg/kg, male mice): 0 cm^3 (2×) and 0.004 cm^3 (2×) and 0.0005 cm^3
PI (TV), percent inhibition of tumor volume vs vehicle [4]: 58.49%
Tumor Volume (Mean ± SD) [4]: 0.0022 ± 0.0043 cm^3
Tumor volumes (Day 9, animal F1): 0.0005 cm^3
Tumor volumes (Day 9, animal F2): 0 cm^3
Tumor volumes (Day 9, animal F3): 0 cm^3
Tumor volumes (Day 9, animal F4): 0 cm^3
Tumor volumes (Day 9, animal F5): 0.0135 cm^3
Tumor volumes (Day 9, animal M1): 0.004 cm^3
Tumor volumes (Day 9, animal M2): 0.004 cm^3
Tumor volumes (Day 9, animal M3): 0.004 cm^3
Tumor volumes (Day 9, animal M4): 0 cm^3
Tumor volumes (Day 9, animal M5): 0 cm^3
Tumor measurements, L (length) [5]: 0.3 cm and 0.2 cm (3×) and 0.1 cm
Tumor measurements, W (width) [5]: 0.3 cm and 0.2 cm (3×) and 0.1 cm
PI (TV), percent inhibition of tumor volume vs vehicle [6]: 88.26%
Tumor Volume (Mean ± SD) [6]: 0.0026 ± 0.0043 cm^3
Tumor measurements L (Day 12, animal F1): 0.1 cm
Tumor measurements W (Day 12, animal F1): 0.1 cm
Tumor volumes (Day 12, animal F1): 0.0005 cm^3
Tumor measurements L (Day 12, animal F2): 0.2 cm
Tumor measurements W (Day 12, animal F2): 0.2 cm
Tumor volumes (Day 12, animal F2): 0.004 cm^3
Tumor measurements L (Day 12, animal F3): 0.2 cm
Tumor measurements W (Day 12, animal F3): 0.2 cm
Tumor volumes (Day 12, animal F3): 0.004 cm^3
Tumor measurements L (Day 12, animal F4): 0.1 cm
Tumor measurements W (Day 12, animal F4): 0.1 cm
Tumor volumes (Day 12, animal F4): 0.0005 cm^3
Tumor measurements L (Day 12, animal F5): 0.3 cm
Tumor measurements W (Day 12, animal F5): 0.3 cm
Tumor volumes (Day 12, animal F5): 0.0135 cm^3
Tumor measurements L (Day 12, animal M1): 0.2 cm
Tumor measurements W (Day 12, animal M1): 0.2 cm
Tumor volumes (Day 12, animal M1): 0.004 cm^3
Tumor measurements L (Day 12, animal M2): 0.2 cm
Tumor measurements W (Day 12, animal M2): 0.2 cm
Tumor volumes (Day 12, animal M2): 0.004 cm^3
Tumor measurements L (Day 12, animal M3): 0.2 cm
Tumor measurements W (Day 12, animal M3): 0.2 cm
Tumor volumes (Day 12, animal M3): 0.004 cm^3
Tumor measurements L (Day 12, animal M4): 0.2 cm
Tumor measurements W (Day 12, animal M4): 0.2 cm
Tumor volumes (Day 12, animal M4): 0.004 cm^3
Tumor measurements L (Day 12, animal M5): 0.1 cm
Tumor measurements W (Day 12, animal M5): 0.1 cm
Tumor volumes (Day 12, animal M5): 0.0005 cm^3
PI (TV), percent inhibition of tumor volume vs vehicle [7]: 96.28%
Tumor Volume (Mean ± SD) [7]: 0.0039 ± 0.0038 cm^3
Tumor measurements L (Day 15, animal F1): 0.3 cm
Tumor measurements W (Day 15, animal F1): 0.3 cm
Tumor volumes (Day 15, animal F1): 0.0135 cm^3
Tumor measurements L (Day 15, animal F2): 0.3 cm
Tumor measurements W (Day 15, animal F2): 0.3 cm
Tumor volumes (Day 15, animal F2): 0.0135 cm^3
Tumor measurements L (Day 15, animal F3): 0.5 cm
Tumor measurements W (Day 15, animal F3): 0.5 cm
Tumor volumes (Day 15, animal F3): 0.0625 cm^3
Tumor measurements L (Day 15, animal F4): 0.3 cm
Tumor measurements W (Day 15, animal F4): 0.3 cm
Tumor volumes (Day 15, animal F4): 0.0135 cm^3
Tumor measurements L (Day 15, animal F5): 0.6 cm
Tumor measurements W (Day 15, animal F5): 0.6 cm
Tumor volumes (Day 15, animal F5): 0.108 cm^3
Tumor measurements L (Day 15, animal M1): 0.5 cm
Tumor measurements W (Day 15, animal M1): 0.5 cm
Tumor volumes (Day 15, animal M1): 0.0625 cm^3
Tumor measurements L (Day 15, animal M2): 0.4 cm
Tumor measurements W (Day 15, animal M2): 0.4 cm
Tumor volumes (Day 15, animal M2): 0.032 cm^3
Tumor measurements L (Day 15, animal M3): 0.6 cm
Tumor measurements W (Day 15, animal M3): 0.6 cm
Tumor volumes (Day 15, animal M3): 0.108 cm^3
Tumor measurements L (Day 15, animal M4): 0.5 cm
Tumor measurements W (Day 15, animal M4): 0.5 cm
Tumor volumes (Day 15, animal M4): 0.0625 cm^3
Tumor measurements L (Day 15, animal M5): 0.5 cm
Tumor measurements W (Day 15, animal M5): 0.5 cm
Tumor volumes (Day 15, animal M5): 0.0625 cm^3
PI (TV), percent inhibition of tumor volume vs vehicle [8]: 85.60%
Tumor Volume (Mean ± SD) [8]: 0.0539 ± 0.0358 cm^3
Tumor Weight (Mean ± SD) (Day 17 (necropsy), low-dose arms: TA-1 6 mg/kg s.c. daily, Pac 10 + Ele 10 mg/kg co-i.v. Days 1, 7, 13): 0.88 ± 0.34 g
Tumor weights (animal F1): 0.64 g
Tumor weights (animal F2): 0.5 g
Tumor weights (animal F3): 1.2 g
Tumor weights (animal F4): 0.62 g
Tumor weights (animal F5): 1.45 g
Tumor weights (animal M1): 0.69 g
Tumor weights (animal M2): 0.56 g
Tumor weights (animal M3): 1.36 g
Tumor weights (animal M4): 0.92 g
Tumor weights (animal M5): 0.89 g
PI (TW), percent inhibition of tumor weight vs vehicle (low-dose arms: TA-1 6 mg/kg s.c. daily, Pac 10 + Ele 10 mg/kg co-i.v. Days 1, 7, 13): 55.67%
PI (TW), percent inhibition of tumor weight vs vehicle (low-dose arms: TA-1 6 mg/kg s.c. daily, Pac 10 + Ele 10 mg/kg co-i.v. Days 1, 7, 13, listed as Group 2): 55.67%
mean tumor volume reduced in comparison to that of the vehicle control group (throughout the course of the study, TA-1 6 mg/kg s.c. daily): more than 50%
